The results in this text go back to patent publication US9187497B2, “Substituted pyrido[3,2-e]pyrrolo[1,2-a]pyrazines as inhibitors of poly(ADP-ribose)polymerase (PARP)” (Takeda Phamaceutical Company Limited, priority 2009, dated 2015).

In general, IC50 refers to the concentration that inhibits the measured activity by half. Low values mean greater potency in that assay, high ones weaker potency in that assay.

One experiment relates to Jurkat cell line. In words: PARP cellular chemopotentiation assay (MTS cell viability with and without TMZ). The class given is cell-based. The settings on record: ratio of EC50 for inhibition of cell viability without and with 100 μM TMZ; Jurkat cells, 96 hours of treatment. How it is done: Potentiation Factor (PF50) Determination from PARP Cellular Chemopotentiation Assay
Jurkat cell line was maintained according to the supplier (American Type Culture Collection (Rockville, Md.)). Cells were seeded in 96-well tissue culture microplates at 10,000 cells per well and cultured for 24 hours prior to addition of compounds, TMZ (Temozolomide) or DMSO (dimethylsulfoxide) vehicle. After 96 hours of treatment, the conversion of MTS ([3-(4,5-dimethylthiazol-2-yl)-5-(3-carboxymethoxyphenyl)-2-(4-sulfophenyl)-2H-tetrazolium, inner salt], Promega, Madison, Wis.) by metabolically active cells was determined through measuring the OD490 nm with a Spectramax microplate reader (Molecular Devices, San Diego, Calif.). To generate concentration-response curves, cells were treated in duplicate with a range of serial compound dilutions (final DMSO concentration was 0.5%) in the absence or presence of 100 μM TMZ chemoreagent. The percentage of viable cells per well was calculated by correction for background and normalizing against DMSO-treated cells. EC50 values for inhibition of cell viability were calculated using XLfit4 MicroSoft Excel curve-fitting software. Chemopotentiation factor PF50 was calculated as the ratio of EC50 values of cells co-treated without and with TMZ, respectively.
With `Cc1ccc(N2CCN(Cc3cnc4c(c3)NC(=O)[C@@H]3CCCN43)CC2)cc1` [Compound 32, (S)-3-((4-p-tolylpiperazin-1-yl)methyl)-6a,7,8,9-tetrahydropyrido[3,2-e]pyrrolo[1,2-a]pyrazin-6(5H)-one], the PF50 result is given as “≧0”.

As to `O=C1Nc2cc(CN3CCN(c4ccc(C(F)(F)F)cn4)CC3)cnc2N2CCC[C@@H]12` [Compound 36, (S)-3-((4-(5-(trifluoromethyl)pyridin-2-yl)piperazin-1-yl)methyl)-6a,7,8,9-tetrahydropyrido[3,2-e]pyrrolo[1,2-a]pyrazin-6(5H)-one], the PF50 entry is “≧0”.

Turning to `O=C1Nc2cc(CN3CCN(c4nc5ccccc5[nH]4)CC3)cnc2N2CCC[C@@H]12` [Compound 39, (S)-3-((4-(1H-benzo[d]imidazol-2-yl)piperazin-1-yl)methyl)-6a,7,8,9-tetrahydropyrido[3,2-e]pyrrolo[1,2-a]pyrazin-6(5H)-one], the PF50 result is on record as “≧0”.

As to `O=C(NC1CC1)c1ccc(N2CCN(Cc3cnc4c(c3)NC(=O)[C@@H]3CSCCN43)CC2)cc1` [Compound 99, (R)—N-cyclopropyl-4-(4-((6-oxo-5,6,6a,7,9,10-hexahydropyrido[3,2-e][1,4]thiazino[4,3-a]pyrazin-3-yl)methyl)piperazin-1-yl)benzamide], the PF50 was more than 5000.

Take `CCNC(=O)c1ccc(N2CCN(Cc3cnc4c(c3)NC(=O)[C@@H]3CCCN43)CC2)nc1` [Compound 7, (S)—N-ethyl-6-(4-((6-oxo-5,6,6a,7,8,9-hexahydropyrido[3,2-e]pyrrolo[1,2-a]pyrazin-3-yl)methyl)piperazin-1-yl)nicotinamide]: the PF50 is reported as more than 10.

Take `O=C1Nc2cc(CN3CCN(c4ccc(O)cc4)CC3)cnc2N2CCC[C@@H]12` [Compound 35, (S)-3-((4-(4-hydroxyphenyl)piperazin-1-yl)methyl)-6a,7,8,9-tetrahydropyrido[3,2-e]pyrrolo[1,2-a]pyrazin-6(5H)-one]: the PF50 result is given as “≧0”.

`O=C(NC1CC1)c1ccc(N2CCN(Cc3cnc4c(c3)NC(=O)[C@@H]3CCCN43)CC2)nc1` [Compound 8, (S)—N-cyclopropyl-6-(4-((6-oxo-5,6,6a,7,8,9-hexahydropyrido[3,2-e]pyrrolo[1,2-a]pyrazin-3-yl)methyl)piperazin-1-yl)nicotinamide]: the PF50 was more than 10.

Regarding `O=C1Nc2cc(CN3CCN(c4ccc(Cl)cc4)CC3)cnc2N2CCOCC12` (stereo not drawn) [Compound 93, 3-((4-(4-chlorophenyl)piperazin-1-yl)methyl)-6a,7,9,10-tetrahydro-[1,4]oxazino[4,3-a]pyrido[3,2-e]pyrazin-6(5H)-one], the PF50 entry was “≧0”.

With `O=C1Nc2cc(CN3CCN(c4cccc(O)c4)CC3)cnc2N2CCC[C@@H]12` [Compound 34, (S)-3-((4-(3-hydroxyphenyl)piperazin-1-yl)methyl)-6a,7,8,9-tetrahydropyrido[3,2-e]pyrrolo[1,2-a]pyrazin-6(5H)-one], the PF50 result is “≧0”.

Consider `N#Cc1cc(F)c(N2CCN(Cc3cnc4c(c3)NC(=O)[C@@H]3CCCN43)CC2)c(F)c1` [Compound 20, (S)-3,5-difluoro-4-(4-((6-oxo-5,6,6a,7,8,9-hexahydropyrido[3,2-e]pyrrolo[1,2-a]pyrazin-3-yl)methyl)piperazin-1-yl)benzonitrile], for which the PF50 entry is listed as “≧0”.

`N#Cc1c(F)cc(N2CCN(Cc3cnc4c(c3)NC(=O)[C@@H]3CCCN43)CC2)cc1F` [Compound 19, (S)-2,6-difluoro-4-(4-((6-oxo-5,6,6a,7,8,9-hexahydropyrido[3,2-e]pyrrolo[1,2-a]pyrazin-3-yl)methyl)piperazin-1-yl)benzonitrile]: the PF50 entry was “≧0”.

Take `O=C1Nc2cc(CN3CCN(c4ccccc4)CC3)cnc2N2CCC[C@@H]12` [Compound 23, (S)-3-((4-phenylpiperazin-1-yl)methyl)-6a,7,8,9-tetrahydropyrido[3,2-e]pyrrolo[1,2-a]pyrazin-6(5H)-one]: the PF50 result is recorded as “≧0”.

Turning to `CCOC(=O)c1ccc(N2CCN(Cc3cnc4c(c3)NC(=O)[C@@H]3CCCN43)CC2)nc1` [Compound 6A, (S)-ethyl 6-(4-((6-oxo-5,6,6a,7,8,9-hexahydropyrido[3,2-e]pyrrolo[1,2-a]pyrazin-3-yl)methyl)piperazin-1-yl)nicotinate], the PF50 result was “≧0”.

In the case of `O=C1Nc2cc(CN3CCN(c4ccc(I)cc4)CC3)cnc2N2CCC[C@@H]12` [Compound 40, (S)-3-((4-(4-iodophenyl)piperazin-1-yl)methyl)-6a,7,8,9-tetrahydropyrido[3,2-e]pyrrolo[1,2-a]pyrazin-6(5H)-one], the PF50 is reported as more than 10.

A further experiment deals with T1, PARP (Homo sapiens, UniProt P09874).
T1 construct: purchased Trevigen 4684-096-01 (enzyme); kit 4684-096-K HT
T1 sequence (P09874 whole entry): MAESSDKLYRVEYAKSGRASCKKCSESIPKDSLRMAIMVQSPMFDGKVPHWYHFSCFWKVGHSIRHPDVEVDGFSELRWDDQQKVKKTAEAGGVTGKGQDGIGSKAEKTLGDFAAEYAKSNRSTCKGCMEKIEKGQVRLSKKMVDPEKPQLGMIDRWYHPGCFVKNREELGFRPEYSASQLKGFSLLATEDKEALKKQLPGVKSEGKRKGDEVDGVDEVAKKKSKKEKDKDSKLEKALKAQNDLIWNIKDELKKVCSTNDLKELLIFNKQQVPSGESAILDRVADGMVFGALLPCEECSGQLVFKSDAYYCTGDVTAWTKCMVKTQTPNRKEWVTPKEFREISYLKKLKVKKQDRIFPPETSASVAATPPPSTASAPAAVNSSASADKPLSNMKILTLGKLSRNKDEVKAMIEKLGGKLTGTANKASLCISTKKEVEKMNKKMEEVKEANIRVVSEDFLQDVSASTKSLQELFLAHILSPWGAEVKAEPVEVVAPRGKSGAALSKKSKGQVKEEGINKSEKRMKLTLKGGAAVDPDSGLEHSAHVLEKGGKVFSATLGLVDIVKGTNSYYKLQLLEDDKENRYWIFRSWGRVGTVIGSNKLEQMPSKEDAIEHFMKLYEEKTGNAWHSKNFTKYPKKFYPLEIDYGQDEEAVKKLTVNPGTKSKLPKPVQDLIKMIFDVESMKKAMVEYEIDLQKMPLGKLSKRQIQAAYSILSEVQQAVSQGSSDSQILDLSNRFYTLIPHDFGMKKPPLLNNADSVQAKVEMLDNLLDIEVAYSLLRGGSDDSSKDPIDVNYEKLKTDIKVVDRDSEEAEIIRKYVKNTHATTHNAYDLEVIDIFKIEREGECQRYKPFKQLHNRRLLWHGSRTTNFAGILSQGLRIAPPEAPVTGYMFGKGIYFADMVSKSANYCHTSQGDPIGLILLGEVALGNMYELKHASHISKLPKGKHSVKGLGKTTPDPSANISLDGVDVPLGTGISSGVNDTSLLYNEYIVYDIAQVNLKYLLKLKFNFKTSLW
In words: PARP ELISA colorimetric assay of inhibition of PARP catalytic activity (IC50). The class given is biochemical. The settings on record: pIC50=-log(IC50), IC50 in molar concentration; ELISA-based PARP kit, 10 minutes of catalysis. How it is done: Inhibition Constant (IC50) from PARP ELISA
Inhibition of PARP catalytic activity was determined by use of an ELISA-based colorimetric PARP/Apoptosis Assay kit (part number 4684-096-K HT, Trevigen). To each histone coated well in the 96-well plate supplied by the manufacturer (part number 4677-096-P) is added 39 μl of PARP buffer (part number 4671-096-02) and 1 μl of test compound dissolved in DMSO (diluted serially 3-fold 11 times). After mixing, 5 μl of 0.1 nM PARP (part number 4684-096-01) is added and the solution allowed to stand at ambient temperature for 10 minutes. PARP catalysis is initiated with the addition of 5 μl of 100 μM β-nicotinamide adenine dinucleotide (NAD+) (part number 4684-096-02) with activated DNA (part number 4671-096-06). After 10 minutes of catalysis the reaction is quenched by solvent aspiration followed by irrigation of the assay wells 4 times with phosphate buffered saline (PBS) containing 0.1% t-Octylphenoxypolyethoxyethanol (Triton® X-100). Mouse Anti-poly ADP ribose (PAR) monoclonal antibody, goat antimouse immunoglobulin G (IgG)-horse radish peroxidase (HRP) conjugate and HRP substrate are added according to the manufacture's specifications to generate a colorimetric signal proportional to PARP catalytic activity. An IC50 for the test compound is calculated from the equation Absorbance=(Amax−background)/(1+([cmpd]/IC50)^n)+background fit to the 12 point test compound concentration gradient via nonlinear least squares.
In general terms: In an ELISA, binding on a coated surface is turned into a signal by an enzyme label.
As for `CC(C)N1CC(=O)Nc2cc(CN3CCC(c4ccc(Cl)cc4)CC3)cnc21` [Compound 96, 7-((4-(4-chlorophenyl)piperidin-1-yl)methyl)-4-isopropyl-3,4-dihydropyrido[2,3-b]pyrazin-2(1H)-one], the IC50 was not below 50.1 nM.

Regarding `Cn1cc(-c2ccc(N3CCN(Cc4cnc5c(c4)NC(=O)[C@@H]4CCCCN54)CC3)cc2)cn1` [Compound 165, (S)-3-((4-(4-(1-methyl-1H-pyrazol-4-yl)phenyl)piperazin-1-yl)methyl)-7,8,9,10-tetrahydro-5H-dipyrido[1,2-a:3′,2′-e]pyrazin-6(6aH)-one], the IC50 was 15.8 to 39.8 nM.

The compound `O=C1Nc2cc(CN3CCN(c4ccc(-c5ccccn5)cc4)CC3)cnc2N2CCCC[C@@H]12` [Compound 157, (S)-3-((4-(4-(pyridin-2-yl)phenyl)piperazin-1-yl)methyl)-7,8,9,10-tetrahydro-5H-dipyrido[1,2-a:3′,2′-e]pyrazin-6(6aH)-one] gave an IC50 not below 50.1 nM.

The compound `O=C1Nc2cc(CN3CCN(c4ccc(-c5cccs5)cc4)CC3)cnc2N2CCCC[C@@H]12` [Compound 147, (S)-3-((4-(4-(thiophen-2-yl)phenyl)piperazin-1-yl)methyl)-7,8,9,10-tetrahydro-5H-dipyrido[1,2-a:3′,2′-e]pyrazin-6(6aH)-one] gave an IC50 not below 50.1 nM.

`O=C1Nc2cc(CN3CCN(c4ccc(-c5ccncc5)cc4)CC3)cnc2N2CCCC[C@@H]12` [Compound 148, (S)-3-((4-(4-(pyridin-4-yl)phenyl)piperazin-1-yl)methyl)-7,8,9,10-tetrahydro-5H-dipyrido[1,2-a:3′,2′-e]pyrazin-6(6aH)-one] had an IC50 of 15.8 to 39.8 nM.

Turning to `CCOC(=O)c1ccc(N2CCN(Cc3cnc4c(c3)NC(=O)[C@@H]3CCCN43)CC2)nc1` [Compound 121, (S)-ethyl 6-(4-((6-oxo-5,6,6a,7,8,9-hexahydropyrido[3,2-e]pyrrolo[1,2-a]pyrazin-3-yl)methyl)piperazin-1-yl)nicotinate], the IC50 was 15.8 to 39.8 nM.

With `O=C1CCC=C1c1ccc(N2CCN(Cc3cnc4c(c3)NC(=O)[C@@H]3CCCCN43)CC2)cc1` [Compound 163, (S)-3-((4-(4-(5-oxocyclopent-1-enyl)phenyl)piperazin-1-yl)methyl)-7,8,9,10-tetrahydro-5H-dipyrido[1,2-a:3′,2′-e]pyrazin-6(6aH)-one], the IC50 was not below 50.1 nM.

Compound `COc1ncc(-c2ccc(N3CCN(Cc4cnc5c(c4)NC(=O)[C@@H]4CCCCN54)CC3)cc2)cn1` [Compound 152, (S)-3-((4-(4-(2-methoxypyrimidin-5-yl)phenyl)piperazin-1-yl)methyl)-7,8,9,10-tetrahydro-5H-dipyrido[1,2-a:3′,2′-e]pyrazin-6(6aH)-one] showed an IC50 of 15.8 to 39.8 nM.

`Cc1cnccc1-c1ccc(N2CCN(Cc3cnc4c(c3)NC(=O)[C@@H]3CCCCN43)CC2)cc1` [Compound 155, (S)-3-((4-(4-(3-methylpyridin-4-yl)phenyl)piperazin-1-yl)methyl)-7,8,9,10-tetrahydro-5H-dipyrido[1,2-a:3′,2′-e]pyrazin-6(6aH)-one] had an IC50 not below 50.1 nM.

Compound `Cc1cscc1-c1ccc(N2CCN(Cc3cnc4c(c3)NC(=O)[C@@H]3CCCCN43)CC2)cc1` [Compound 161, (S)-3-((4-(4-(4-methylthiophen-3-yl)phenyl)piperazin-1-yl)methyl)-7,8,9,10-tetrahydro-5H-dipyrido[1,2-a:3′,2′-e]pyrazin-6(6aH)-one] gave an IC50 not below 50.1 nM.
